Assay results reported in PMC3372491, “Application of Consensus Scoring and Principal Component Analysis for Virtual Screening against β-Secretase (BACE-1)” (PLoS ONE, 2012).

Target: T1, β-secretase (BACE-1) (Homo sapiens, UniProt P56817)
T1 construct: gene BACE1
Assay: BACE-1 FRET enzymatic assay
Type: biochemical

T1 sequence (P56817 46-457): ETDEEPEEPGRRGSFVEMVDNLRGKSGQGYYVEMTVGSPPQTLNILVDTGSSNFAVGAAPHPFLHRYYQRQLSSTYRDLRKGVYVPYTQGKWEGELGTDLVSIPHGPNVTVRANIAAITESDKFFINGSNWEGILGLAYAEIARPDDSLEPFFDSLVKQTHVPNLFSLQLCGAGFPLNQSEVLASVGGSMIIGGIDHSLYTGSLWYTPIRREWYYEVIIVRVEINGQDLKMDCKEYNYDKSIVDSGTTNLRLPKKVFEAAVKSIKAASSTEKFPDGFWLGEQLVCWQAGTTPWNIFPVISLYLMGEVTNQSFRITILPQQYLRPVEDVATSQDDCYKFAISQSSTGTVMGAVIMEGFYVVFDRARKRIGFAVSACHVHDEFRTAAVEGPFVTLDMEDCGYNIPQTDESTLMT

Compound	IC50 [µM]
O=C(NCc1ccccc1)[C@@H](O)[C@H](O)C(=O)NCc1ccccc1 [compound 2, 276065]	85.3
N[C@@H](CCCCNC(=O)OCc1ccccc1)C(=O)OCc1ccccc1 [compound 1, S450588]	51.6
